Measured values as given in US9340532B2, “Methods and compositions for inhibiting CNKSR1” (PHUSIS THERAPEUTICS, INC., priority 2012, dated 2016).
Entries after “also recorded” stand apart in the source; their conditions may differ. Like-named read-outs stand apart in the source and are kept apart here.

Legend:
[1] = tested on: mut-KRAS NSCLC cell lines; test: Screening against NSCLC cell line panel, mut-KRAS lines; type: cell-based
Protocol: The isogenic KRAS lines harboring G12D, G12C, and G12V were obtained from Horizon Discovery labs on a one year lease. These cells were cultured in McCoys media with 10% FBS to 80% confluency. Cells were then released from flasks via trypsinization and plated into 96-well plates at an initial density range of 2000 cells per well. Cells were allowed 24 hours to attach, and then the agents were added to the culture media at a range of concentrations from 0-100 μM. Cells were incubated for 72 hours with the drugs, and then viability was assessed using an MTS viability assay. Cells were exposed to MTS reagent (Promega) dissolved in PBS (Hyclone) at a concentration of 200 μL reagent/mL media for 2 hours. Absorbance was then read at 490 nm, and viability was expressed as a percentage normalized between the negative control (no cells plated) and the condition of cells with no drug added (100% viability) normalized as the upper limit of viability.
Our panel of 30 cell lines and an extensive characterization were obtained from Dr. John Minna (UTSW). All cell lines were cultured in RPMI 1640 with 10% FBS. Cells were treated with concentrations of agents at concentrations 0.01 to 50 μM and evaluated as described above. IC50's were determined using Excelfit.

[2] = tested on: H1975 (KRAS wildtype cell line); test: Proliferation Assay H1975; type: cell-based; details: Homo sapiens, NCI-H1975, n = 1
In short: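 Cells plated 2000 per well, allowed 24 h to attach, then exposed 72 h to agents (0-100 μM for isogenic lines; 0.01 to 50 μM for the RPMI 1640/10% FBS-cultured 30-line NSCLC panel). MTS read at 490 nm after 2 h, normalized to no-cell and no-drug controls; IC50 from curve fitting.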

Structure (SMILES): CCOC(=O)Cc1nn(Cc2nc(-c3ccc(C)cc3)cs2)c(=O)c2ccccc12 [Compound 7]
- inhibition of mut-KRAS cell growth (in words) ([1]; FIG. 3 and FIG. 5): low micromolar inhibition; also recorded: as effectively as siRNA to KRAS or CNKSR1
- IC50 ([1]; Table 5, read-out: Mean IC50 mut-KRAS): 23.9 ± 2.5 µM
- IC50 ([1]; Table 6, mean of 3 mut-KRAS lines, read-out: NSCL cell line cytotoxicity IC50 mut-KRAS): 49 µM
- IC50 [2]: 45 µM
